According to US10941109B2, “Compositions and methods of treatment using a BCAT1 inhibitor” (Ergon Pharmaceuticals, LLC, priority 2011, dated 2021):

Test system: TGF-β1-stimulated human fibroblasts
Assay: Collagen I production from TGF-β1-stimulated human fibroblasts (ELISA)
Assay type: cell-based
Conditions: for inhibition of collagen I secretion: at a concentration of 5-10 mM; for % Control Collagen Production: 30 min pretreatment, 7 ng/mL TGF-β1 for 48 hrs, collagen I per μg cell lysate
Method: In vitro fibrosis is assessed by measuring collagen synthesis after treatment of fibroblast cells with a profibrotic stimuli such as TGF-β1 or bleomycin. Collagen secretion into the media can be quantified in conditioned media using an appropriate ELISA kit.
Confluent monolayers of human fibroblasts, plated onto duplicate 35 mm dishes, were pretreated with various concentrations of compounds 2, 6, and 7 for 30 min followed by stimulation of the cells with 7 ng/mL TGF-β1 for 48 hrs. At the end of the experiment, conditioned media were collected and assessed for the presence of secreted collagen I, whereas cells were collected and lysed. Collagen I secretion was quantified using an ELISA kit from R&D Systems per the manufacturer's instructions and expressed as arbitrary absorbance units per μg of cell lysate. In Table 2, results are shown as % Control Collagen Production, defined as the amount of collagen I secreted per μg of cell lysate from fibroblast cultures stimulated with TGF-β1 in the absence of an inhibitor.

Structure (SMILES) | inhibition of collagen I secretion | % Control Collagen Production (compound concentration 5 mM) | % Control Collagen Production (compound concentration 2 mM) | % Control Collagen Production (compound concentration 10 mM)
CC(=O)C(C)CC(Cc1ccccc1)C(=O)O (stereo not drawn) [Compound 2, 2-benzyl-4-methyl-5-oxohexanoic acid] | completely inhibit | 4% |  | 
CC(=O)C(CCC(=O)O)c1ccccc1 (stereo not drawn) [Compound 7, 5-oxo-4-phenylhexanoic acid] | completely inhibit | 41% | 150% | 2%
CC(CCC(=O)O)C(=O)c1ccccc1 (stereo not drawn) [Compound 6, 4-methyl-5-oxo-5-phenylpentanoic acid] | completely inhibit | 77% |  | 2%
